Measured values taken from paper PMC5517430, “2,3,7,8-Tetrachlorodibenzo-p-dioxin (TCDD)-elicited effects on bile acid homeostasis: Alterations in biosynthesis, enterohepatic circulation, and microbial metabolism” (Scientific Reports, 2017).

Experiments:
Format in all cases: in vivo, mouse
[1] = tested on: gallbladder of male C57BL/6 mice; experiment: Gallbladder volume (micro-caliper, ellipsoid); settings: 30 µg/kg TCDD every 4 d for 28 d
Procedure: (§1) At 25d after the initial dose (PND53), fecal pellets from the previous 24 hours (h) were collected from each cage (4 mice per cage) and stored at −80 °C. At 28d after the initial exposure (PND56), mice (fasted for 6 h) were weighed and blood was collected from the submandibular vein prior to cervical dislocation. The gallbladder length, width, and depth were measured using a micro-caliper. Its volume was calculated assuming an ellipsoid shape: volume (µL) = length (mm) × width (mm) × depth (mm) × π/6[63], [64]. The distal ileum (10 cm section extending from the caecum toward the jejunum) was removed, flushed with Ca^2+/Mg^2+-free phosphate buffered saline (PBS; Sigma), and opened longitudinally. The epithelial lining was scraped into a vial containing TRIzol (Invitrogen, Carlsbad, CA), frozen in liquid nitrogen, and stored at −80 °C. Liver, gonadal white adipose tissue (gWAT), and brown adipose tissue were removed, weighed, frozen in liquid nitrogen, and stored at −80 °C. Serum alkaline phosphatase (ALP) activity was determined using a commercial kit (Pointe Scientific, Canton, MI).

serum ALP = experiment: Serum alkaline phosphatase (ALP) activity, commercial kit; settings: male mice, 30 µg/kg TCDD every 4 d for 28 d
Procedure: as §1

Abcc4 = experiment: Hepatic RNA-Seq differential gene expression (fold change, P1(t), ED50, BMD, BMDL); settings: C57BL/6, mouse, liver, oral; male mice, 30 µg/kg TCDD every 4 d for 28 d
Procedure: (§2) Frozen ileal epithelium scrapings and liver samples were homogenized in TRIzol (Ambion, Waltham, MA) using a Mixer Mill 300 tissue homogenizer (Retsch, Germany) and total RNA was isolated as previously described. RNA was quantified using a Nano-drop spectrophotometer (Thermo Scientific, Wilmington, DE) at 260 nm, and purity was assessed using the A260/A280 ratio and the Caliper LabChip GX (Perkin Elmer, Waltham, MA).
(§3) Dose-dependent gene expression was examined using RNA-Seq performed at the MSU Research Technology Support Facility (RTSF) Genomics Core (rtsf.natsci.msu.edu/genomics). Ileal libraries from three independent biological replicates (n = 3) were prepared using the Ovation Mouse RNA-Seq System 1–16 sample preparation kit (NuGen, San Carlos, CA), with an additional DNase step. Libraries were quantified and sequenced as previously described, using a read depth of ~30 M per sample[33], [67]. Quality was determined using FASTQC v0.11.3 and adaptor sequences were removed using Trimmomatic v0.33. Reads were mapped to the mouse reference genome (GRCm38 release 81) using Bowtie2 v2.2.6 and TopHat2 v2.1.0. Alignments were converted to SAM format using SAMTools v1.2.0. For TCDD-mediated differential gene expression, fold changes were calculated relative to vehicle controls. Hepatic RNA-Seq analysis was previously published. Genes were considered differentially expressed if |fold change| ≥ 1.5 and statistical P1(t) value ≥ 0.8 at one or more doses. RNA-Seq datasets for the ileal epithelium and liver were deposited in the Gene Expression Omnibus (GEO; accession number GSE89430 and GSE87519, respectively). The RNA-Seq results (fold changes, P1(t) values) for each gene discussed in the manuscript have been compiled in Supplementary Table S1. […] Estimation of benchmark dose (BMD) and BMD lower confidence limit (BMDL) was performed using BMDExpress[69] as previously described, and has been included in Supplementary Table S1.

Slc10a2 = experiment: Ileal epithelium RNA-Seq differential gene expression (fold change, P1(t), ED50, BMD, BMDL); design: key to Cyp3a44 P1(t)_30: statistical P1(t) value; differentially expressed if ≥ 0.8; settings: C57BL/6, mouse, ileal epithelium, oral; male mice, TCDD every 4 d for 28 d
Procedure: as §2, §3

Slc51a = experiment: as above; design: key to Cyp3a44 P1(t)_30: statistical P1(t) value; differentially expressed if ≥ 0.8; settings: C57BL/6, mouse, ileal epithelium, oral; male mice, TCDD every 4 d for 28 d
Procedure: as §2, §3

ileal gene expression = experiment: as above; design: key to Cyp3a44 P1(t)_30: statistical P1(t) value; differentially expressed if ≥ 0.8
Procedure: as §2, §3

male C57BL/6 mice = experiment: Whole gut transit time with carmine red dye
Procedure: At 27d after the initial dose (PND55), whole gut transit time (WGTT) was determined using carmine red dye, which cannot be intestinally absorbed. At time 0 (t0), mice were orally gavaged with 150 µL of carmine red solution (6% carmine red dye suspended in 0.5% methylcellulose). Fecal pellets were monitored continuously for the presence of carmine red. WGTT represents the time interval between t0 and the first observance of carmine red dye in the fecal pellets.

[2] = ileum, 0.01 µg/kg TCDD, relative to vehicle control
[3] = ileum, 0.03 µg/kg TCDD, relative to vehicle control
[4] = ileum, 0.1 µg/kg TCDD, relative to vehicle control
[5] = ileum, 0.3 µg/kg TCDD, relative to vehicle control
[6] = ileum, 1 µg/kg TCDD, relative to vehicle control
[7] = ileum, 3 µg/kg TCDD, relative to vehicle control
[8] = ileum, 10 µg/kg TCDD, relative to vehicle control
[9] = ileum, 30 µg/kg TCDD, relative to vehicle control
[10] = male mice, TCDD every 4 d for 28 d

Clc1cc2c(cc1Cl)Oc1cc(Cl)c(Cl)cc1O2 [TCDD, 2,3,7,8-tetrachlorodibenzo-p-dioxin]
Gallbladder volume, fold increase compared to controls [1]: 2.5 fold | Serum alkaline phosphatase (ALP) activity (serum ALP): unchanged | fold induction at 28 d (Abcc4): 58.1 | fold induction at 28 d (Slc10a2): 1.6 | fold induction at 28 d (Slc51a): 1.5 | Cyp3a44 BMD (ileal gene expression; ileum): 36.49 µg/kg TCDD | Cyp3a44 BMDL (ileal gene expression; ileum): 18.80 µg/kg TCDD | Cyp3a44 Differentially Expressed? (ileal gene expression; ileum): YES | Cyp3a44 ED50 (ileal gene expression; ileum): Not sigmoidal | Fgf15 BMD (ileal gene expression; ileum): No model fit | Fgf15 BMDL (ileal gene expression; ileum): No model fit | Fgf15 Differentially Expressed? (ileal gene expression; ileum): YES | Fgf15 ED50 (ileal gene expression; ileum): 9.00 µg/kg TCDD | Slc10a2 (ASBT or IBAT) BMD (ileal gene expression; ileum): 5.66 µg/kg TCDD | Slc10a2 (ASBT or IBAT) BMDL (ileal gene expression; ileum): 0.69 µg/kg TCDD | Slc10a2 (ASBT or IBAT) Differentially Expressed? (ileal gene expression; ileum): YES | Slc10a2 (ASBT or IBAT) ED50 (ileal gene expression; ileum): 0.98 µg/kg TCDD | Slc51a (OSTα) BMD (ileal gene expression; ileum): No model fit | Slc51a (OSTα) BMDL (ileal gene expression; ileum): No model fit | Slc51a (OSTα) Differentially Expressed? (ileal gene expression; ileum): YES | Slc51a (OSTα) ED50 (ileal gene expression; ileum): 0.89 µg/kg TCDD | Cyp3a44 P1(t)_0.01 (ileal gene expression; ileum, 0.01 µg/kg TCDD): -0.1316 | Cyp3a44 FC_0.01 (ileal gene expression; [2]): 0.91 | Fgf15 FC_0.01 (ileal gene expression; [2]): 0.81 | Slc10a2 (ASBT or IBAT) FC_0.01 (ileal gene expression; [2]): 0.93 | Slc51a (OSTα) FC_0.01 (ileal gene expression; [2]): 0.98 | Slc51b (OSTβ) FC_0.01 (ileal gene expression; [2]): 0.88 | Cyp3a44 P1(t)_0.03 (ileal gene expression; ileum, 0.03 µg/kg TCDD): 0.0640 | Cyp3a44 FC_0.03 (ileal gene expression; [3]): 0.80 | Fgf15 FC_0.03 (ileal gene expression; [3]): 0.63 | Slc10a2 (ASBT or IBAT) FC_0.03 (ileal gene expression; [3]): 0.93 | Slc51a (OSTα) FC_0.03 (ileal gene expression; [3]): 0.96 | Slc51b (OSTβ) FC_0.03 (ileal gene expression; [3]): 0.87 | Cyp3a44 P1(t)_0.1 (ileal gene expression; ileum, 0.1 µg/kg TCDD): -0.1090 | Cyp3a44 FC_0.1 (ileal gene expression; [4]): 0.89 | Fgf15 FC_0.1 (ileal gene expression; [4]): 0.85 | Slc10a2 (ASBT or IBAT) FC_0.1 (ileal gene expression; [4]): 0.92 | Slc51a (OSTα) FC_0.1 (ileal gene expression; [4]): 0.98 | Slc51b (OSTβ) FC_0.1 (ileal gene expression; [4]): 0.88 | Cyp3a44 P1(t)_0.3 (ileal gene expression; ileum, 0.3 µg/kg TCDD): 0.6027 | Cyp3a44 FC_0.3 (ileal gene expression; [5]): 0.61 | Fgf15 FC_0.3 (ileal gene expression; [5]): 1.12 | Slc10a2 (ASBT or IBAT) FC_0.3 (ileal gene expression; [5]): 0.74 | Slc51a (OSTα) FC_0.3 (ileal gene expression; [5]): 1.07 | Slc51b (OSTβ) FC_0.3 (ileal gene expression; [5]): 0.88 | Cyp3a44 P1(t)_1 (ileal gene expression; ileum, 1 µg/kg TCDD): 0.5083 | Cyp3a44 FC_1 (ileal gene expression; [6]): 0.65 | Fgf15 FC_1 (ileal gene expression; [6]): 1.50 | Slc10a2 (ASBT or IBAT) FC_1 (ileal gene expression; [6]): 1.19 | Slc51a (OSTα) FC_1 (ileal gene expression; [6]): 1.30 | Slc51b (OSTβ) FC_1 (ileal gene expression; [6]): 0.90 | Cyp3a44 P1(t)_3 (ileal gene expression; ileum, 3 µg/kg TCDD): -0.1130 | Cyp3a44 FC_3 (ileal gene expression; [7]): 1.12 | Fgf15 FC_3 (ileal gene expression; [7]): 1.99 | Slc10a2 (ASBT or IBAT) FC_3 (ileal gene expression; [7]): 1.22 | Slc51a (OSTα) FC_3 (ileal gene expression; [7]): 1.46 | Slc51b (OSTβ) FC_3 (ileal gene expression; [7]): 0.95 | Cyp3a44 P1(t)_10 (ileal gene expression; ileum, 10 µg/kg TCDD): 0.9033 | Cyp3a44 FC_10 (ileal gene expression; [8]): 0.46 | Fgf15 FC_10 (ileal gene expression; [8]): 0.51 | Slc10a2 (ASBT or IBAT) FC_10 (ileal gene expression; [8]): 1.38 | Slc51a (OSTα) FC_10 (ileal gene expression; [8]): 1.34 | Slc51b (OSTβ) FC_10 (ileal gene expression; [8]): 0.93 | Cyp3a44 P1(t)_30 (ileal gene expression; ileum, 30 µg/kg TCDD): 0.7035 | Cyp3a44 FC_30 (ileal gene expression; [9]): 0.58 | Fgf15 FC_30 (ileal gene expression; [9]): 0.10 | Slc10a2 (ASBT or IBAT) FC_30 (ileal gene expression; [9]): 1.59 | Slc51a (OSTα) FC_30 (ileal gene expression; [9]): 1.15 | Slc51b (OSTβ) FC_30 (ileal gene expression; [9]): 0.79 | Cyp3a44 ileal expression, fold repression (ileal gene expression; [10]): 2.2 fold | Slc51b ileal expression (ileal gene expression; [10]): unchanged | Whole gut transit time (male C57BL/6 mice; 30 µg/kg TCDD every 4 d, 27 d after initial dose, controls 2.5 h): 4.1 h | Reduction in gut motility (male C57BL/6 mice; 30 µg/kg TCDD vs controls): 1.6 fold
